This experiment deals with Stimulator of interferon genes protein (Homo sapiens, UniProt Q86WV6). The experiment is described as follows: WT STING Binding Assay. The protocol:
Upon proximity of the two dyes, the excitation of the donor by the flash lamp on the PHERAstar FSX plate reader triggers a Fluorescence Resonance Energy Transfer (FRET) towards the acceptor, which in turn fluoresces at 665 nm. To assess the ability of the synthetic small molecule STING ligands to bind to human STING, a competitive assay format was applied. A 10-point titration of each of the synthetic ligands in 5 uL were transferred into a 384 well plate, followed by 20 uL of assay buffer containing the 6×His-tagged human STING protein and labeled 2′3′cGAMP ligand and incubated for three hours at room temperature. The raw values obtained from the PHERAstar were used to calculate the reported IC50 values (the signal is inversely proportional to the binding of the synthetic ligand) through curve fitting in Genedata. The percent inhibition was calculated based upon the maximal amount of binding by synthetic compound versus the maximum binding of unlabeled 2′3′ cGAMP which was used as a control in each assay.

Chain of Stimulator of interferon genes protein (Q86WV6 whole entry): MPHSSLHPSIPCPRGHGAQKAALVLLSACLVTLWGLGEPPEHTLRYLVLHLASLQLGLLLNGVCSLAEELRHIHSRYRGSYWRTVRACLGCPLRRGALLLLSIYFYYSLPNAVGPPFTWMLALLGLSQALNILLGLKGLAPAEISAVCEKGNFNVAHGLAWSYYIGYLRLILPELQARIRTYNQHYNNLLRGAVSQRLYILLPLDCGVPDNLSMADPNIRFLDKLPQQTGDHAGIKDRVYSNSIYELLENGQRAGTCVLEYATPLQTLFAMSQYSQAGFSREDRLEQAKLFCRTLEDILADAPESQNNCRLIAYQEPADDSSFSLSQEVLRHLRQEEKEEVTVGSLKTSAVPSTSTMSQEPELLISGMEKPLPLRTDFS

In the case of `O=C(Nc1cc(CCOc2cc(NC(=O)c3ccc(-n4ccnc4)nn3)c(C(=O)O)cc2F)c(F)cc1C(=O)O)c1ccc(-c2cn[nH]c2)nn1` [US20230357253, Compound 205], the IC50 – broadly, the concentration that gives 50% inhibition – is below 10 nM. As for `Cn1nccc1-c1ccc(C(=O)Nc2cc(OCCCOc3cc(NC(=O)c4ccc(-c5ccnn5C)nn4)c(C(=O)O)cc3F)c(F)cc2C(=O)O)nn1` [US20230357253, Compound 206], the figure is above 1000 nM; as for `Cn1nccc1-c1ccc(C(=O)Nc2cc(CCCc3cc(NC(=O)c4ccc(-n5ccnc5)nn4)c(C(=O)O)cc3F)c(F)cc2C(=O)O)nn1` [US20230357253, Compound 207], above 1000 nM. Then `O=C(Nc1cc(CCCc2cc(NC(=O)c3ccc(-n4ccnc4)nn3)c(C(=O)O)cc2F)c(F)cc1C(=O)O)c1ccc(N2CCOCC2)nn1` [US20230357253, Compound 212], with above 1000 nM; and `O=C(Nc1cc(CCCc2cc(NC(=O)c3ccc(-n4ccnc4)nn3)c(C(=O)O)cc2F)c(F)cc1C(=O)O)c1ccc(N2CCNCC2)nn1` [US20230357253, Compound 214], with above 1000 nM.
